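Protocol summary: plate cells (96-well), add compound at 5 concentrations, incubate 48 h, interpolate endpoints linearly. GI50: concentration for 50% inhibition of growth.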 Calls of active or inactive are those of the source. Rule as the data show it: active = GI50 up to about 1.1 µM and inactive = higher.
Assays:
Test in all cases: DTP human tumour cell line panel, 48 h
A549 = system: A549
BT-549 = system: BT-549
CAKI-1 = system: CAKI-1
Hs-578T = system: Hs-578T
LOX IMVI = system: LOX IMVI
MDA-MB-231 = system: MDA-MB-231
MOLT-4 = system: MOLT-4
Malme-3M = system: Malme-3M
NCI-H522 = system: NCI-H522
OVCAR-5 = system: OVCAR-5
SF-539 = system: SF-539
SK-MEL-28 = system: SK-MEL-28
SK-MEL-5 = system: SK-MEL-5
SN12C = system: SN12C
SNB-19 = system: SNB-19
SW-620 = system: SW-620
T47D = system: T47D
U-251 = system: U-251
UO-31 = system: UO-31

Row | Structure (SMILES) | GI50 (A549) | GI50 (BT-549) | GI50 (CAKI-1) | GI50 (Hs-578T) | GI50 (LOX IMVI) | GI50 (MDA-MB-231) | GI50 (MOLT-4) | GI50 (Malme-3M) | GI50 (NCI-H522) | GI50 (OVCAR-5) | GI50 (SF-539) | GI50 (SK-MEL-28) | GI50 (SK-MEL-5) | GI50 (SN12C) | GI50 (SNB-19) | GI50 (SW-620) | GI50 (T47D) | GI50 (U-251) | GI50 (UO-31)
1 | CC(C)OC(=O)NNc1c(Cl)cc(Cl)cc1Cl | 53 µM (inactive) | 44.4 µM (inactive) | 58.6 µM (inactive) | 58.2 µM (inactive) | 76.7 µM (inactive) | > 100 µM (inactive) | 58.7 µM (inactive) | 20.4 µM (inactive) | 30.1 µM (inactive) | > 100 µM (inactive) | > 100 µM (inactive) | > 100 µM (inactive) | 22.5 µM (inactive) | > 100 µM (inactive) | > 100 µM (inactive) | > 100 µM (inactive) | 33.7 µM (inactive) | > 100 µM (inactive) | 55.8 µM (inactive)
2 | C=CCOc1ccccc1/N=N/C(C#N)=N\Nc1ccccc1OCC=C | > 100 µM (inactive) | > 100 µM (inactive) | > 100 µM (inactive) | > 100 µM (inactive) | > 100 µM (inactive) | > 100 µM (inactive) | > 100 µM (inactive) | > 100 µM (inactive) | > 100 µM (inactive) | > 100 µM (inactive) | > 100 µM (inactive) | > 100 µM (inactive) | > 100 µM (inactive) | > 100 µM (inactive) | > 100 µM (inactive) | > 100 µM (inactive) | > 100 µM (inactive) | > 100 µM (inactive) | > 100 µM (inactive)
3 | O=C1/C(=C/c2ccc(O)c([N+](=O)[O-])c2)CCC/C1=C\c1ccc(O)c([N+](=O)[O-])c1 | 11.7 µM (inactive) | 13.3 µM (inactive) | 11.5 µM (inactive) | 4.48 µM (inactive) | 9.89 µM (inactive) | 21.9 µM (inactive) | 13.9 µM (inactive) | 8.63 µM (inactive) | 8.93 µM (inactive) | 15.4 µM (inactive) | 19.3 µM (inactive) | 7.5 µM (inactive) | 9.27 µM (inactive) | 11.4 µM (inactive) | 11.7 µM (inactive) | 10.2 µM (inactive) | 14.9 µM (inactive) | 9.33 µM (inactive) | 15.2 µM (inactive)
4 | CCC1=C(C=O)c2cc3[nH]c(cc4nc(c5c6[nH]c(cc1n2)c(C)c6C(=O)C5C(=O)OC)C(CCC(=O)OC)C4C)c(C)c3CC (centres undefined) | > 100 µM (inactive) | > 100 µM (inactive) | > 100 µM (inactive) | 88.1 µM (inactive) | > 100 µM (inactive) | > 100 µM (inactive) | > 100 µM (inactive) | > 100 µM (inactive) | > 100 µM (inactive) | > 100 µM (inactive) | > 100 µM (inactive) | > 100 µM (inactive) | > 100 µM (inactive) | > 100 µM (inactive) | > 100 µM (inactive) | > 100 µM (inactive) | > 100 µM (inactive) | > 100 µM (inactive) | > 100 µM (inactive)
5 | CCCCCCCCCC[C@H](O)[C@H]1CC[C@@H]([C@@H](O)CC[C@H](O)[C@@H]2CCC(CCCCCCC[C@@H](O)CC3=C[C@H](C)OC3=O)O2)O1 (some centres undefined) | 1.77 µM (inactive) | 5.08 µM (inactive) | 3.22 µM (inactive) | 1.81 µM (inactive) | 0.212 µM (active) | 2.62 µM (inactive) | 2.92 µM (inactive) | 3.4 µM (inactive) | 3.7 µM (inactive) | 3.49 µM (inactive) | 1.79 µM (inactive) | 1.93 µM (inactive) | 1.5 µM (inactive) | 2.94 µM (inactive) | 1.61 µM (inactive) | 1.69 µM (inactive) | 3.08 µM (inactive) | 1.97 µM (inactive) | 0.00416 µM (active)
6 | COc1cc(OC)c(OC)cc1/C=C/c1cnnc2ccccc12 | > 10 µM (inactive) | > 10 µM (inactive) | > 10 µM (inactive) | > 10 µM (inactive) | 6.9 µM (inactive) | > 10 µM (inactive) | > 10 µM (inactive) | > 10 µM (inactive) | > 10 µM (inactive) | > 10 µM (inactive) | > 10 µM (inactive) | > 10 µM (inactive) | > 10 µM (inactive) | > 10 µM (inactive) | > 10 µM (inactive) | > 10 µM (inactive) | > 10 µM (inactive) | > 10 µM (inactive) | > 10 µM (inactive)
7 | Cc1ccc2c(c1)c1ccc3c(c1n2C)C(=O)C=CC3=O | > 10 µM (inactive) | 1.36 µM (inactive) | 2.36 µM (inactive) | 3.08 µM (inactive) | 9.53 µM (inactive) | 2.36 µM (inactive) | 0.76 µM (active) | 2 µM (inactive) | 1.23 µM (inactive) | > 10 µM (inactive) | 2.32 µM (inactive) | 2.18 µM (inactive) | 4.56 µM (inactive) | 3.52 µM (inactive) | > 10 µM (inactive) | 0.543 µM (active) | 1.63 µM (inactive) | > 7.31 µM (inactive) | 1.41 µM (inactive)
8 | COC(=O)C(C(=O)C(=O)Nc1ccccc1C#N)c1nc2ccc([N+](=O)[O-])cc2nc1O (centres undefined) | > 100 µM (inactive) | > 100 µM (inactive) | > 100 µM (inactive) | > 100 µM (inactive) | > 100 µM (inactive) | > 100 µM (inactive) | > 100 µM (inactive) | > 100 µM (inactive) | 53.7 µM (inactive) | > 100 µM (inactive) | 44.5 µM (inactive) | > 100 µM (inactive) | > 100 µM (inactive) | > 100 µM (inactive) | > 100 µM (inactive) | > 100 µM (inactive) | > 100 µM (inactive) | > 100 µM (inactive) | > 100 µM (inactive)
9 | CCOC(=O)C(NC(=O)OCc1ccccc1)C(=O)O (centres undefined) | > 100 µM (inactive) | > 100 µM (inactive) | > 100 µM (inactive) | > 100 µM (inactive) | > 100 µM (inactive) | > 100 µM (inactive) | > 100 µM (inactive) | > 100 µM (inactive) | > 100 µM (inactive) | > 100 µM (inactive) | > 100 µM (inactive) | > 100 µM (inactive) | > 100 µM (inactive) | > 100 µM (inactive) | > 100 µM (inactive) | > 100 µM (inactive) | > 100 µM (inactive) | > 100 µM (inactive) | > 100 µM (inactive)
10 | COc1ccc(NC(=O)/C(=N/NC(N)=S)C2C(=O)NC(=S)NC2=O)c(OC)c1 | > 100 µM (inactive) | > 100 µM (inactive) | > 100 µM (inactive) | > 100 µM (inactive) | > 100 µM (inactive) | > 100 µM (inactive) | > 100 µM (inactive) | > 100 µM (inactive) | > 100 µM (inactive) | > 100 µM (inactive) | > 100 µM (inactive) | > 100 µM (inactive) | > 100 µM (inactive) | > 100 µM (inactive) | > 100 µM (inactive) | > 100 µM (inactive) | > 100 µM (inactive) | > 100 µM (inactive) | > 100 µM (inactive)
11 | Cc1cc(C)c(S(=O)(=O)N(CCCN)OCCON(CCCN)S(=O)(=O)c2c(C)cc(C)cc2C)c(C)c1 | 3.31 µM (inactive) | 7.78 µM (inactive) | 26.2 µM (inactive) | 2.67 µM (inactive) | 2.44 µM (inactive) | 2.89 µM (inactive) | 2.64 µM (inactive) | 1.93 µM (inactive) | 6.53 µM (inactive) | 2.24 µM (inactive) | 2.49 µM (inactive) | 5.26 µM (inactive) | 8.2 µM (inactive) | 7.87 µM (inactive) | 2.08 µM (inactive) | > 22.2 µM (inactive) | 4.92 µM (inactive) | – | 23.3 µM (inactive)
12 | O=C(O)c1ccc(NC(c2ccccc2)c2ccc3cccnc3c2O)cc1 (centres undefined) | 5.94 µM (inactive) | 10 µM (inactive) | 7.83 µM (inactive) | 28.5 µM (inactive) | 7.8 µM (inactive) | 10.8 µM (inactive) | 3.56 µM (inactive) | 29 µM (inactive) | 4.06 µM (inactive) | 16.8 µM (inactive) | 5.66 µM (inactive) | 11.2 µM (inactive) | 6.65 µM (inactive) | 6.87 µM (inactive) | 6.7 µM (inactive) | 5.77 µM (inactive) | 10.9 µM (inactive) | 4.17 µM (inactive) | 5.75 µM (inactive)
13 | O=c1[nH]nc(-c2ccccc2)n1/N=C/c1cccc([N+](=O)[O-])c1 | > 100 µM (inactive) | > 100 µM (inactive) | > 100 µM (inactive) | > 100 µM (inactive) | > 100 µM (inactive) | > 100 µM (inactive) | > 100 µM (inactive) | > 100 µM (inactive) | 8.15 µM (inactive) | > 100 µM (inactive) | 30.1 µM (inactive) | > 100 µM (inactive) | > 100 µM (inactive) | > 100 µM (inactive) | 98.6 µM (inactive) | > 100 µM (inactive) | > 100 µM (inactive) | 41.5 µM (inactive) | > 100 µM (inactive)
14 | COc1cc(S(=O)(=O)Nc2ccc(-c3csc(N)n3)cc2)ccc1Cl | 18.4 µM (inactive) | 22.3 µM (inactive) | 20.2 µM (inactive) | 53.7 µM (inactive) | 18.7 µM (inactive) | 16.9 µM (inactive) | 11.1 µM (inactive) | 16.6 µM (inactive) | 17.9 µM (inactive) | 23.3 µM (inactive) | 47.6 µM (inactive) | 21.3 µM (inactive) | 16.6 µM (inactive) | 18.3 µM (inactive) | 19.5 µM (inactive) | 24.3 µM (inactive) | 7.87 µM (inactive) | – | 19.8 µM (inactive)

— ChEMBL document CHEMBL1201862, “PubChem BioAssay data set” (2004)
